Experimental data as given in paper PMC10097024, “Cytotoxic and Antibacterial Prenylated Acylphloroglucinols from Hypericum olympicum L” (Plants, 2023).
Values joined by “and” are separate entries in the source; they are usually repeats but may differ in a detail not shown here. Identical values can stand only once. Like-named read-outs stand apart in the source and are kept apart here.

Legend:
Format in all cases: cell-based
[1] = tested on: human tumor (MDA-MB-231, EJ, K-562, HL-60 and HL-60/DOX) cell lines; test: MTT cytotoxicity test, tumor cell line panel
Source text: The group of human cell lines used in this study were represented by the tumor cell lines MDA-MB (breast carcinoma), EJ (urinary bladder carcinoma), K-562 (chronic myeloid leukemia), HL-60 (acute pre-myeloid leukemia), HL-60/DOX (multi-drug resistant HL-60 cell line, with over expression of MRP-1) and the non-tumorigenic cell lines HEK-293 (embryonic kidney cells) and EA.hy926 (vascular endothelial cells). EJ, HL60 and EA.hy926 were purchased from American Type Culture Collection (ATCC) (Manassas, Virginia). The other cell lines were purchased from the German Collection of Microorganisms and Cell Cultures (DSMZ GmbH, Braunschweig, Germany). HL-60/DOX cell lines were generated by periodically treating HL-60 cells with anthracyclins. The conditions in which the cell culture flasks were maintained were as follows: 37 °C in an incubator “BB 16-Function Line” Heraeus (Kendro, Hanau, Germany) with 5% CO2 humidified atmosphere. The growth medium was 90% RPMI-1640, supplemented with 10% FBS and 2 mM L-glutamine. MDA-MB-231, EJ, HEK-293 and EA.hy926 cells were maintained as adherent monolayer cultures while all the other (leukemic) cell lines were grown as suspension type cultures. Cells were maintained in log phase: the adherent cell lines were subjected to trypsinization 1–2 times a week and the leukemic cell lines were passaged 2–3 times a week by removing of part of the cellular suspension and substituting it with fresh medium.
The evaluation of cytotoxic activity was conducted by MTT test as described previously. The median inhibitory concentration (IC50) values which represent the half-maximal concentration values were calculated from sigmoidal concentration–response curves, using non-linear regression analysis (Curve fit, GraphPad Prizm 5.0 software, GraphPad Software Inc., San Diego, CA, USA). The selectivity index was calculated as the ratio of the IC50 of a non-cancerous line (HEK-293 or EA.hy926) and the average IC50 of all chemosensitive tested tumor cell lines (x). Therefore, SI=IC50HEK-293/IC50x . The resistance index (RI) was calculated as the ratio of IC50 of the multi-drug resistant HL-60/DOX cell line and the IC50 of its parent cell line: RI=IC50HL-60/DOX/IC50HL-60 .

[2] = tested on: Enterococcus faecalis (ATCC 29212); test: MIC by broth microdilution
Source text: (§1) The Gram-positive bacterial strains that were examined for susceptibility were: Staphylococcus aureus (ATCC 29213, American Type Cell Culture Collection, Manassas, VA, USA), Staphylococcus aureus—MRSA (NBIMCC 8327-resistant to methicillin and oxacillin, National Bulgarian Collection for Industrial Microorganisms and Cell Cultures, Sofia, Bulgaria), Enterococcus faecalis (ATCC 29212) and Streptococcus pyogenes (SAIMC 10535, Collection of the Stephan Angeloff Institute of Microbiology, Sofia, Bulgaria). The only Gram-negative bacterial strain used was Escherichia coli (ATCC 35218). Bacteria were maintained in Trypticase Soy Broth (TSB, Himedia, India) at 37 °C, aerobic conditions. For the experiments brain heart infusion (BHI) broth (#M210 HiMedia, Mumbai, India) was used for E. faecalis and S. pyogenes and Mueller Hinton broth (MHB, #M0405B) from Thermo Scientific-Oxoid (Basingstoke, UK)—for all other strains.
(§2) BMD was performed according to the following protocol of ISO 20776/1-2006 [117]. A bacterial suspension with density of 10^8 CFU/mL (0.5 McFarland standard, OD600) was prepared from an overnight grown liquid bacterial culture homogenized over vortex and brought to a working bacterial suspension (WBS) with concentration of 5×10^5 CFU/mL by being diluted 200× with MHB or BHI broth and homogenized over vortex again. Two-fold serial dilutions of compounds 3–5 was prepared in 96-well round bottom plates to a volume of 50 μL and final range of concentrations 100–0.2 μg/mL. Stock solutions were dissolved in ethanol and MHB was used as diluent and as test for absence of contamination. Three wells were left as blank samples and 6 wells were left for control samples. An equivalent volume (50 μL) of the WBS was inoculated to each well in the aforementioned plates achieve final bacterial density of […] with the exception of the blank wells. After 18–24 h incubation under aerobic standardized conditions at 37 °C the plates were examined. […] Antibiotics dissolved in sterile distilled water were used as referent positive controls. They were penicillin G (PEN, #B0500000, Merck KGaA, Darmstadt, Germany) for E. faecalis and S. pyogenes, gentamicin (GEN, #15750-037, 50 mg/mL, Gibco, Paisley, UK) for all bacteria except S. pyogenes and ciprofloxacin (CIP, Ciproflav:10 mg/mL, Polfa S.A. Warsaw Pharmaceutical Works, Starogard Gdanski, Poland) for E. faecalis. The range of concentrations were 0.004–2 mg/L for PEN, 0.008–4 mg/L for GEN and 0.005–2 mg/L for CIP. The requirements of EUCAST (European Committee on Antimicrobial Susceptibility Testing) for their MICs were followed for discussing the results. In the end the plates which contained active agents were subjected to assessment of the dehydrogenase activity of the bacteria.

[3] = tested on: Staphylococcus aureus (ATCC 29213); test: MIC by broth microdilution
Source text: as §1, §2

[4] = tested on: Staphylococcus aureus—MRSA (NBIMCC 8327); test: MIC by broth microdilution
Source text: as §1, §2

[5] = tested on: Streptococcus pyogenes (SAIMC 10535); test: MIC by broth microdilution
Source text: as §1, §2

[6] = Homo sapiens, average IC50 of all chemo-sensitive tested tumor cell lines, read-out: x

| Compound | IC50 [1, 6] [µM] | MIC ([2]; ATCC29212, read-out: MIC) | MIC [3] [mg/L] | MIC ([3]; read-out: MIC) [µM] | MIC ([4]; read-out: MIC) | MIC ([5]; read-out: MIC) | IC50 ([1]; Homo sapiens, tumor cell lines, MTT assay, read-out: IC50 (range over the tumor cell lines)) [µM] | MIC ([3]; ATCC29213, Staphylococcus aureus, read-out: MIC) | MIC [4] [mg/L] | IC50 ([1]; average IC50 of all chemo-sensitive tested tumor cell lines, read-out: x) [µM] | MIC [2] [mg/L] | MIC ([2]; read-out: MIC) [µM] | MIC [5] [mg/L] |
| --- | --- | --- | --- | --- | --- | --- | --- | --- | --- | --- | --- | --- | --- |
| CC(C)=CCC[C@]1(C)[C@@H](CC=C(C)C)C[C@]2(C)C(=O)C(CC=C(C)C)=C(O)[C@@]1(C(=O)C(C)C)C2=O [Compound 3, hyperpolyphyllirin/hyperibine J] | 6.18 | 8 µg/mL and 16.6 µM | 2.00 | 4.14 | 8 µg/mL and 16.6 µM | 31 µg/mL and 64.2 µM |  |  |  |  |  |  |  |
| CC(C)=CCC[C@]1(C)[C@@H](CC=C(C)C)C[C@H]2C(=O)[C@]1(C(=O)C(C)C)C(=O)C(CC=C(C)C)=C2O [Compound 5, (1S,5R,7S,8R)-4-hydroxy-1-isobutyryl-8-methyl-3,7-bis(3-methylbut-2-en-1-yl)-8-(4-methylpent-3-en-1-yl)bicyclo[3.3.1]non-3-ene-2,9-dione] | 1.32 | 4 µg/mL and 8.53 µM | 1.00 | 2.14 | 1 µg/mL and 2.14 µM | 4 µg/mL and 8.53 µM | 1.16 to 1.71 | 0.78 µg/mL to 2 µg/mL and 1.57 µM to 4.14 µM | 1.00 |  |  |  |  |
| (1R,5R,7S,8R)-4-hydroxy-5,8-dimethyl-3,7-bis(3-methylbut-2-en-1-yl)-1-(2-methylbutanoyl)-8-(4-methylpent-3-en-1-yl)bicyclo[3.3.1]non-3-ene-2,9-dione [Compound 4] |  |  | 0.78 | 1.57 | 25.17 µM | 25.17 µM |  |  | 12.5 | 15 | 12.5 | 25.17 | 12.50 |
